“Also recorded” adds a separate entry of the source.
How the values were obtained:
[1] = tested on: Colo320HSR introduced with RON-active Δ155 gene; assay: Induction of apoptosis; assay type: cell-based
From the text: (§1) Additionally, Colo320HSR, the colon cancer cell line in which RON is not expressed, was introduced with the RON-active Δ155 gene and the RON-active Δ160 gene, which are constantly active in the Colo320HSR, and treated with CJ12524 at various concentrations in order to confirm the presence of apoptosis.

[2] = tested on: Colo320HSR introduced with RON-active Δ160 gene; assay: Induction of apoptosis; assay type: cell-based
From the text: as §1

[3] = target: T1, RON (p-RON) in HCT8 (Homo sapiens, UniProt Q04912); assay: Inhibition of RON phosphorylation in HCT8 colon cancer cells; assay type: cell-based; conditions: HCT8, various concentrations
T1 construct: endogenous in cells; host or cells: HCT8 (cultured, and as xenograft tumour in nude mice)
T1 sequence (Q04912 25-1400): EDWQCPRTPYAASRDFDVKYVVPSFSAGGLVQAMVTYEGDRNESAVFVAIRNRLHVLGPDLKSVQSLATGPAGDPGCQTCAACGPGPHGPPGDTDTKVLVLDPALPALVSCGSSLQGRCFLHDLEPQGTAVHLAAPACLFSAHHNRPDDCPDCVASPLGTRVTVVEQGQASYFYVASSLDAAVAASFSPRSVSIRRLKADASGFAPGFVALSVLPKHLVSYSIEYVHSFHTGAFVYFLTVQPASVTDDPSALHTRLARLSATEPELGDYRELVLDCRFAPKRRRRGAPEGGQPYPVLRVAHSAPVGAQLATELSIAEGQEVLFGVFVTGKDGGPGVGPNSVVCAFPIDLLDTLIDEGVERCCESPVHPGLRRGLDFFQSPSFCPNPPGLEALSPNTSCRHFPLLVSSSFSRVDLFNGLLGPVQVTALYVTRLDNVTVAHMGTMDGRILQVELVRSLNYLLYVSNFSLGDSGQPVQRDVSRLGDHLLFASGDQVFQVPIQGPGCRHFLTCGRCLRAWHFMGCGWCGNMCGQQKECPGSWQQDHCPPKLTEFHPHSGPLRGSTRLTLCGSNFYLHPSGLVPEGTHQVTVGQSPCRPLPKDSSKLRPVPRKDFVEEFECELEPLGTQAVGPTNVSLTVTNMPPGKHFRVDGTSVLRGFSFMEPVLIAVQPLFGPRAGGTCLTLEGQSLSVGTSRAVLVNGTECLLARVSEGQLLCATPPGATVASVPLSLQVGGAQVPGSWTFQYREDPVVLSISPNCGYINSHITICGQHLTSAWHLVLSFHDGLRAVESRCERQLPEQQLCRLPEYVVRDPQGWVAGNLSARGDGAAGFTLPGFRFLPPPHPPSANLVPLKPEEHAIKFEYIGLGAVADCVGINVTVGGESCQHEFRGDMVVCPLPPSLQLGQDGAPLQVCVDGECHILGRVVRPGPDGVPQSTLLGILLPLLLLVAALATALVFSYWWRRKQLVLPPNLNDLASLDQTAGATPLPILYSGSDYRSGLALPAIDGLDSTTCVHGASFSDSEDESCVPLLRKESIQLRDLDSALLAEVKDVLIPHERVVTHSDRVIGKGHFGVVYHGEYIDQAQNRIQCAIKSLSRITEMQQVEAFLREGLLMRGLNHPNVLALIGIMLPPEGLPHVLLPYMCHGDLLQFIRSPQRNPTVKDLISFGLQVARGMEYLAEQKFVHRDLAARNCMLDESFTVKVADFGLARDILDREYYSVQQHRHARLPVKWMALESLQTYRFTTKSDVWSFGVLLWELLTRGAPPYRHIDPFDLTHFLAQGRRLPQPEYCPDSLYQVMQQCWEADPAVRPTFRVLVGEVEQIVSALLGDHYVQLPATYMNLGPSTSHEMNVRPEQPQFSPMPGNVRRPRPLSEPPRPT
Experimental: (§2) The cells in the sample were lysed using RIPA buffer and the protein was extracted therefrom using a high speed centrifuge. The protein in an amount of 30 μg per cell was separated by electrophoresis, transferred onto a PDVF membrane by western blot, and allowed to react with RON antibodies, which were diluted in 5% skim milk at a 1:2000 ratio, at 4° C. for 12 hours. Then, the resultant was washed 3 times with TBS-T buffer for 15 minutes per wash, reacted with the secondary antibodies, which were diluted in 5% skim milk at a 1:2000 ratio, at room temperature for 2 hours, washed 3 times with TBS-T buffer for 15 minutes per wash. The illumination of the PDVF membrane was induced using ECL buffer and the expression of the RON protein was developed using an X-ray film. Additionally, 1 μg of the RON antibody was added to the protein in an amount of 500 μg per cell by immunoprecipitation method, reacted at 4° C. for 12 hours, and anti-antibody beads were added thereto to immunoprecipitate the RON antibody. The resultant was separated by electrophoresis, transferred onto a PDVF membrane by western blot, and allowed to react with p-Tyr antibodies, which were diluted in 5% skim milk at a 1:1000 ratio, at 4° C. for 12 hours. […]

[4] = tested on: RON-active Δ160; assay: Inhibition of RON phosphorylation in Colo320HSR introduced with RON variant; assay type: cell-based; conditions: Colo320HSR with RON-active Δ160 gene
Experimental: as §2

[5] = target: T2, RON-active Δ155 (Homo sapiens, UniProt Q04912, DEL574-682/INS813Q); assay: as above; assay type: cell-based; conditions: Colo320HSR with RON-active Δ155 gene
T2 construct: expressed in transfected cells; host or cells: Colo320HSR
T2 sequence (Q04912 with tags, fused parts or gaps isoform Q04912-2 DEL574-682/INS813Q): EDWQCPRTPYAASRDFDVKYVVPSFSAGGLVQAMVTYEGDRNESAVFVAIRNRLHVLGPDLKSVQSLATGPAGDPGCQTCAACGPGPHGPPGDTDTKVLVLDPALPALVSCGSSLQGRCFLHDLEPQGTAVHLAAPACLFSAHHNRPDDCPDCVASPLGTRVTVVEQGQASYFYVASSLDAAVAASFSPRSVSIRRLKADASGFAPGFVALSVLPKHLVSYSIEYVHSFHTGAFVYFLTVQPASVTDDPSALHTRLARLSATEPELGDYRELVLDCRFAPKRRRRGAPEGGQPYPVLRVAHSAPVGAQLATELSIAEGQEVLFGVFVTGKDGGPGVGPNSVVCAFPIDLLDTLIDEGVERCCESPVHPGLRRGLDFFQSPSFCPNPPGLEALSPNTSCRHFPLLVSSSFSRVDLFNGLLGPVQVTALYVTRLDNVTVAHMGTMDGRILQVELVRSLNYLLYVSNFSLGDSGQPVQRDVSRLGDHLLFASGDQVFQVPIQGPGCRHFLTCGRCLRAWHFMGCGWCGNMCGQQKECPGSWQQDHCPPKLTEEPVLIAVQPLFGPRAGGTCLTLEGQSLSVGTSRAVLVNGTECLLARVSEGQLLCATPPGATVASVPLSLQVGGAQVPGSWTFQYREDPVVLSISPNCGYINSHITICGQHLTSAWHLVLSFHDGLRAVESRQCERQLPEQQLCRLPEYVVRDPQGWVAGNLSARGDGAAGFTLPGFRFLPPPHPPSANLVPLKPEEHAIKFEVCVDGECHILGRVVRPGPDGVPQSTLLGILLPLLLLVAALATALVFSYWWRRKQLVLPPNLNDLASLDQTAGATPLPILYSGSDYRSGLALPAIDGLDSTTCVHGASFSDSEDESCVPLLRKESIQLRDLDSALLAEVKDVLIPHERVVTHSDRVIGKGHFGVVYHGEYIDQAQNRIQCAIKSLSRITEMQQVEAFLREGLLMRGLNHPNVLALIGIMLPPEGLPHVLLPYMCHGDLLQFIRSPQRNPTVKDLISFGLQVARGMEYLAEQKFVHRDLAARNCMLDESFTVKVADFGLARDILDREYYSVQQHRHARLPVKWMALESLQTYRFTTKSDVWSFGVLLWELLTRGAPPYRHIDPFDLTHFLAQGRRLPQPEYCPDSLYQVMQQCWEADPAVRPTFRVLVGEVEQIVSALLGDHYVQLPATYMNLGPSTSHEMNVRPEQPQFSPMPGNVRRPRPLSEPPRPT
Experimental: as §2

[6] = tested on: RON (p-RON) in HT29; assay: Inhibition of RON phosphorylation in HT29 colon cancer cells; assay type: cell-based; conditions: HT29, various concentrations
Experimental: as §2

[7] = target: T3, RON phosphorylation (Homo sapiens, UniProt Q04912); assay: RON phosphorylation in tumor tissue of the HCT8 xenograft model (immunochemical staining, western blot); assay type: in vivo; conditions: after completion of administration, FIG. 8c, 8d
T3 construct: endogenous in cells; host or cells: HCT8 (cultured, and as xenograft tumour in nude mice)
T3 sequence (Q04912 25-1400): as the sequence (Q04912 25-1400) above
Experimental: as §2

[8] = tested on: HCT8; assay: Cell invasion (cell metastasis); assay type: cell-based; conditions: HCT8, FIG. 7e
Experimental: HCT8, a colon cancer cell line where RON is always phosphorylated, was treated with CJ12524 in order to confirm the degree of cell invasion.

[9] = tested on: HT29; assay: Induction of apoptosis; assay type: cell-based
Experimental: (§3) HT29 and HCT8, the colon cancer cell lines which have a high p-RON expression level because RON is always phosphorylated, were treated with CJ12524 in order to confirm the presence of apoptosis.

[10] = tested on: HCT8; assay: Induction of apoptosis; assay type: cell-based
Experimental: as §3

[11] = tested on: HCT8 cell line xenograft in nude mice; assay: RON-active cancer cell xenograft model, tumor size, tumor weight, body weight; assay type: in vivo, mouse
Experimental: For analyzing the drug sensitivity to CJ12524 in an in-vivo state, the present inventors transplanted a cancer cell line which was determined to be positive against the RON activity into nude mice, and thereby a cancer cell-derived xenograft model ([…]) was prepared.

[12] = tested on: MKN1 cells transplanted into Balb/c nude mice; assay: Stomach cancer cell xenograft mouse model without RON activity, tumor volume; assay type: in vivo; conditions: 30 mpk and 100 mpk oral daily, FIG. 9
From the text: It was confirmed whether tumor formation can be inhibited by CJ12537 in a stomach cancer xenograft mouse model without RON activity.
Specifically, 5-to 6-week-old Balb/c nude mice were subcutaneously injected with 1×10^7 cells (MKN1 parent, MKN1 RONΔ160 stable cell) and Matrigel at a 1:1 (v/v) ratio. When the tumor size grew to a size of 90 mm^3 to 100 mm^3, the mice were divided into groups and administered with drugs. Vehicle, CJ12537 (30 mpk), CJ12537 (100 mpk), and positive control (Amgen; 30 mpk) were orally administered daily. The tumor size was measured once in three days. Upon completion of the administration, the mice were sacrificed and tissues were ablated and the weight of tumor was measured. In particular, proteins were extracted from the tissues and the changes in expression pattern of p-RON and related proteins were confirmed by western blot analysis. Additionally, for confirming the change in tumor size, the tumor size was measured once every three days and compared and analyzed even after the completion of drug administration.

[13] = tested on: Colo320HSR introduced with RON Δ160; assay: Colo320HSR xenograft animal model, inhibition of tumor growth; assay type: in vivo
Experimental: (§4) Specifically, an animal model using the Colo320HSR cell line without RON activity (control group) and an animal model using the cell line introduced with the RON-active Δ155 gene and the RON-active Δ160 gene, which are constantly expressed, or a RON M1254T mutant were prepared, and their effects of inhibiting tumor formation by CJ12537 were compared.

[14] = tested on: Colo320HSR introduced with RON Δ155; assay: as above; assay type: in vivo; conditions: RON-active variant Δ155
Experimental: as §4

[15] = tested on: Colo320HSR control (pMET & pRON negative, without RON activity); assay: as above; assay type: in vivo; conditions: various concentrations
Experimental: as §4

[16] = various concentrations, 14 days, FIG. 8a

For CCOc1ccn(-c2ccc(F)cc2)c(=O)c1C(=O)Nc1ccc(Oc2ccnc3cc(-c4ccccn4)sc23)c(F)c1 [CJ12524, 4-ethoxy-N-(3-fluoro-4-(2-(pyridin-2-yl)thieno[3,2-b]pyridin-7-yloxy)phenyl)-1-(4-fluorophenyl)-2-oxo-1,2-dihydropyridin-3-carboxamide], the “expression of cleaved caspase 3 (apoptosis marker)” value ([1]; Colo320HSR RON-active Δ155, according to the concentration) was “increased”, the apoptosis ([1]; Colo320HSR RON-active Δ155, various concentrations, FIG. 7d) was “increased” and the “expression of cleaved caspase 3 (apoptosis marker)” value ([2]; Colo320HSR RON-active Δ160, according to the concentration) was “increased”. For the same molecule, the apoptosis ([2]; Colo320HSR RON-active Δ160, various concentrations, FIG. 7d) was “increased”, the RON phosphorylation [3] was “inhibited; also recorded: reduced” and the RON phosphorylation [4] was “reduced”. For the same molecule, the RON phosphorylation [5] was “reduced”, the RON phosphorylation [6] was “inhibited; also recorded: reduced” and the “RON phosphorylation in tumor tissue” value [7] was “decreased”. The “inhibition of the degree of cell metastasis (cell invasion)” value [8] was “about 60%”, the “expression of cleaved caspase 3” value ([9]; HT29) was “increased” and the apoptosis ([9]; HT29, various concentrations, according to the concentration, FIG. 7c) was “increased”. For the same molecule, the “expression of cleaved caspase 3” value ([10]; HCT8) was “increased”, the apoptosis ([10]; HCT8, various concentrations, according to the concentration, FIG. 7c) was “increased” and the “tumor weight upon completion of drug administration” value ([11]; all treated groups, FIG. 8b) was “reduced”. The “body weight of the mice” value [11, 16] was “almost no decrease” and the “tumor growth (tumor size)” value [11, 16] was “inhibited”.

In the case of CCOc1ccn(-c2ccc(F)cc2)c(=O)c1C(=O)Nc1ccc(Oc2ccnc3cc(-c4cn(C)cn4)sc23)c(F)c1 [CJ12537, 4-ethoxy-N-(3-fluoro-4-(2-(1-methyl-1H-imidazol-4-yl)thieno[3,2-b]pyridin-7-yloxy)phenyl)-1-(4-fluorophenyl)-2-oxo-1,2-dihydropyridin-3-carboxamide], the tumor volume [12] is reported as “no noticeable change”, the “Tumor growth relative to vehicle (fold)” value ([13]; Colo320HSR RON Δ160, 30 MPK, vehicle = 1) is reported as 0.71 fold and the tumor formation ([13]; RON-active variant Δ160) is reported as “inhibited tumor formation”. The tumor formation [14] was “inhibited tumor formation” and the tumor formation [15] was “did not inhibit tumor formation at all”.

Source: US11946934B2, “Biomarker for predicting the sensitivity to a protein kinase inhibitor and a use thereof” (Wellmarker Bio Co., LTD., priority 2014, dated 2024)
